Measured values published in patent publication US7659404B2, “Broad spectrum 2-(substituted-amino)-benzothiazole sulfonamide HIV protease inhibitors” (Tibotec Pharmaceuticals Ltd., priority 2001, dated 2010).

Experiments:
[1] = tested on: clinically isolated HIV strain H; format: cell-based; details: FR=EC50(mutant strain)/EC50(HIV-1 strain LAI)
Method: (§1) HIV- or mock-infected MT4 cells were incubated for five days in the presence of various concentrations of the inhibitor. […] Cell viability is measured by measuring the concentration of MTT, a yellow, water soluble tetrazolium dye that is converted to a purple, water insoluble formazan in the mitochondria of living cells only. Upon solubilization of the resulting formazan crystals with isopropanol, the absorbance of the solution is monitored at 540 nm. The values correlate directly to the number of living cells remaining in the culture at the completion of the five day incubation. The inhibitory activity of the compound was monitored on the virus-infected cells and was expressed as EC50 and EC90. These values represent the amount of the compound required to protect 50% and 90%, respectively, of the cells from the cytopathogenic effect of the virus. The toxicity of the compound was measured on the mock-infected cells and was expressed as CC50, which represents the concentration of compound required to inhibit the growth of the cells by 50%. The selectivity index (SI) (ratio CC50/EC50) is an indication of the selectivity of the anti-HIV activity of the inhibitor.
(§2) Because of the increasing emergence of drug resistant HIV strains, the present compounds were tested for their potency against clinically isolated HIV strains harboring several mutations.
(§3) As a measure of the broad spectrum activity of the present compounds, the fold resistance (FR) defined as FR=EC50(mutant strain)/EC50(HIV-1 strain LAI).

[2] = tested on: clinically isolated HIV strain I; format: cell-based; details: FR=EC50(mutant strain)/EC50(HIV-1 strain LAI)
Method: as §1, §2, §3

[3] = tested on: clinically isolated HIV strain O; format: cell-based; details: FR=EC50(mutant strain)/EC50(HIV-1 strain LAI)
Method: as §1, §2, §3

[4] = tested on: clinically isolated HIV strain J; format: cell-based; details: FR=EC50(mutant strain)/EC50(HIV-1 strain LAI)
Method: as §1, §2, §3

[5] = tested on: clinically isolated HIV strain T; format: cell-based; details: FR=EC50(mutant strain)/EC50(HIV-1 strain LAI)
Method: as §1, §2, §3

virus strain F (R13025) = assay: microbe, parasite or virus in culture; format: cell-based, HIV; details: FR=EC50(mutant strain)/EC50(HIV-1 strain LAI); strain F
In short: (§4)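 MT4 cells, HIV or mock infection, 5 d with compound dilutions; MTT readout, formazan in isopropanol, A540. EC50/EC90 = conc. protecting 50/90% of cells from CPE; CC50 from mock-infected cells. FR = EC50 mutant/EC50 LAI.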

virus strain S (R13080) = assay: microbe, parasite or virus in culture; format: cell-based, HIV; details: FR=EC50(mutant strain)/EC50(HIV-1 strain LAI); strain S
In short: as §4

Row | Compound | fold resistance (FR), strain H [1] | fold resistance (FR), strain I [2] | fold resistance (FR), strain O [3] | fold resistance (FR), strain J [4] | fold resistance (FR), strain T [5] | fold resistance (FR), strain F (virus strain F (R13025)) | fold resistance (FR), strain S (virus strain S (R13080))
1 | CC(C)CN(CC(O)C(Cc1ccccc1)NC(=O)OC1COC2OCCC12)S(=O)(=O)c1ccc2nc(NC(=O)CN3CCNCC3)sc2c1 (mixture of isomers) [Compound 5] | 0.6 | 0.6 | 0.4 | 0.3 | 2.6 | 0.5 | 0.6
2 | COC(=O)CNc1nc2ccc(S(=O)(=O)N(CC(C)C)CC(O)C(Cc3ccccc3)NC(=O)OC3COC4OCCC34)cc2s1 (mixture of isomers) [Compound 6] | 7.7 | 5.3 | 4.7 | 5.6 | 104.3 | 24.0 | 30.7
3 | CC(C)CN(C[C@@H](O)[C@H](Cc1ccccc1)NC(=O)O[C@H]1CO[C@H]2OCC[C@H]21)S(=O)(=O)c1ccc2nc(NC(=O)CN3CCNCC3)sc2c1 [Compound 17] | 0.8 | 0.7 | 0.3 | 0.2 | 1.0 | 0.3 | 0.6
4 | CC(C)CN(C[C@@H](O)[C@H](Cc1ccccc1)NC(=O)O[C@H]1CO[C@H]2OCC[C@H]21)S(=O)(=O)c1ccc2nc(NCCN(C)C(=O)OC(C)(C)C)sc2c1 [Compound 21] | 4.8 | 3.7 | 3.4 | 3.3 | 380.0 | 16.6 | 38.6
5 | CC(C)CN(C[C@@H](O)[C@H](Cc1ccccc1)NC(=O)O[C@H]1CO[C@H]2OCC[C@H]21)S(=O)(=O)c1ccc2nc(NCCCN(C)C)sc2c1 [Compound 22] | 0.4 | 0.6 | 0.4 | 0.4 | 6.0 | 0.3 | 1.4
6 | CNCCNc1nc2ccc(S(=O)(=O)N(CC(C)C)C[C@@H](O)[C@H](Cc3ccccc3)NC(=O)O[C@H]3CO[C@H]4OCC[C@H]43)cc2s1 [Compound 23] | 1.2 | 1.0 | 0.9 | 1.0 | 1.2 | 1.1 | 1.1
7 | CC(C)CN(C[C@@H](O)[C@H](Cc1ccccc1)NC(=O)O[C@H]1CO[C@H]2OCC[C@H]21)S(=O)(=O)c1ccc2nc(N3CCN(C)C(=O)C3)sc2c1 [Compound 24] | 4.7 | 1.1 | 1.6 | 4.5 | 174.9 | 16.6 | 24.1
8 | CC(C)CN(C[C@@H](O)[C@H](Cc1ccccc1)NC(=O)O[C@H]1CO[C@H]2OCC[C@H]21)S(=O)(=O)c1ccc2nc(N3CCN(C)C3=O)sc2c1 [Compound 25] | 4.7 | 3.5 | 5.6 | 6.0 | 619.8 | 26.0 | 42.5
9 | CC(C)CN(C[C@@H](O)[C@H](Cc1ccccc1)NC(=O)O[C@H]1CO[C@H]2OCC[C@H]21)S(=O)(=O)c1ccc2nc(N3CCN(C)CC3=O)sc2c1 [Compound 26] | 20.3 | 6.6 | 10.6 | 9.2 | 345.6 | 29.6 | 34.1
10 | CCOC(=O)N(CCN(C)C)c1nc2ccc(S(=O)(=O)N(CC(C)C)C[C@@H](O)[C@H](Cc3ccccc3)NC(=O)O[C@H]3CO[C@H]4OCC[C@H]43)cc2s1 [Compound 28] | 1.8 | 1.4 | 0.8 | 0.7 | 12.7 | 2.3 | 4.4
11 | CC(C)CN(CC(O)C(Cc1ccccc1)NC(=O)OC1CNC(=O)C1)S(=O)(=O)c1ccc2nc(NC(=O)CN(C)C)sc2c1 (stereo not shown) [Compound 36] | 0.6 | 0.5 | 0.2 | 0.2 | 0.2 | 0.2 | 0.2
12 | CC(C)CN(C[C@@H](O)[C@H](Cc1ccccc1)NC(=O)OCc1cccnc1)S(=O)(=O)c1ccc2nc(NCCN(C)C)sc2c1 [Compound 38] | 2.0 | 1.1 | 1.2 | 3.9 | 230.4 | 12.4 | 11.9
13 | Cc1c(N)cccc1C(=O)N[C@@H](Cc1ccccc1)[C@H](O)CN(CC(C)C)S(=O)(=O)c1ccc2nc(NCCN(C)C)sc2c1 [Compound 39] | 2.3 | 2.4 | 1.7 | 2.2 | 249.9 | 19.7 | 16.5
14 | Cc1cccc(C)c1OCC(=O)N[C@@H](Cc1ccccc1)[C@H](O)CN(CC(C)C)S(=O)(=O)c1ccc2nc(NCCN(C)C)sc2c1 [Compound 40] | 2.1 | 6.4 | 3.2 | 2.7 | 87.8 | 7.2 | 12.8
15 | CC(C)CN(C[C@@H](O)[C@H](Cc1ccccc1)NC(=O)OCc1cccnc1)S(=O)(=O)c1ccc2nc(NCCN3CCCC3)sc2c1 [Compound 41] | 2.3 | 2.5 | 2.0 | 5.6 | 252.5 | 44.4 | 37.6
16 | Cc1c(N)cccc1C(=O)N[C@@H](Cc1ccccc1)[C@H](O)CN(CC(C)C)S(=O)(=O)c1ccc2nc(NCCN3CCCC3)sc2c1 [Compound 45] | 1.2 | 4.0 | 1.3 | 1.1 | 103.0 | 17.3 | 19.9
